Measurements: patent publication US9265253B2, “Use of macrocyclic picolinamides as fungicides” (DOW AGROSCIENCES LLC, priority 2013, dated 2016)
Read-outs that look alike come from different tables or passages of the source.

Tests used:
[1] = test system: Puccinia triticina; Synonym: Puccinia recondite f. Sp. Tritici; assay: Wheat Brown Rust (PUCCRT) disease control; format: in vivo; details: Puccinia triticina, topical; for pest or weed control at 100 ppm: rate 100 ppm; for pest or weed control at 121.5 g/ha: rate 121.5 g/H
Summary of the method: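 Brown rust on first-leaf Yuma wheat: spore inoculation before or after spray application (acetone/Triton X-100 solution, or EC with Trycol in track spray), overnight 100% RH at 22 °C, disease developed at 24 °C. Severity scored 0–100% and converted to percent control against untreated.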

[2] = test system: Mycosphaerella graminicola; Anamorph: Septoria tritici; assay: Leaf Blotch of Wheat (SEPTTR) disease control; format: in vivo; details: Zymoseptoria tritici; for pest or weed control at 100 ppm: rate 100 ppm; for pest or weed control at 121.5 g/ha: rate 121.5 g/H
Summary of the method: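 Protective or curative format: Septoria tritici inoculation either preceded or followed fungicide application to first-leaf Yuma wheat. Severity scored 0–100%; control expressed versus untreated.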

[3] = 24 h, 1 Day Protectant, read-out: PUCCRT 1 DP disease control
[4] = 72 h, 3 Day Curative, read-out: PUCCRT 3 DC disease control
[5] = 24 h, 1 Day Protectant, read-out: SEPTTR 1 DP disease control
[6] = 72 h, 3 Day Curative, read-out: SEPTTR 3 DC disease control

Row | SMILES | melting point [°C] | pest or weed control at 100 ppm [1, 3] [%] | pest or weed control at 100 ppm [1, 4] [%] | pest or weed control at 100 ppm [2, 5] [%] | pest or weed control at 100 ppm [2, 6] [%] | pest or weed control at 121.5 g/ha [1, 3] [%] | pest or weed control at 121.5 g/ha [2, 5] [%] | pest or weed control at 121.5 g/ha [2, 6] [%] | pest or weed control at 121.5 g/ha [1, 4] [%]
1 | COc1ccnc(C(=O)N[C@H]2CCC[C@H](Cc3ccc(C)cc3)[C@@H](Oc3ccccc3)[C@H](C)OC2=O)c1O [Compound F49, 3-hydroxy-4-methoxy-N-((3S,7R,8R,9S)-9-methyl-7-(4-methylbenzyl)-2-oxo-8-phenoxyoxonan-3-yl)picolinamide] | 62 to 66 | 80 to 100 | 0 to 80 | 80 to 100 | 80 to 100 |  |  |  | 
2 | COc1ccnc(C(=O)N[C@H]2CCC[C@H](Cc3ccc(F)cc3F)[C@@H](OCc3ccccc3)[C@H](C)OC2=O)c1O [Compound F52] | 68 to 72 | 80 to 100 | 80 to 100 | 80 to 100 | 80 to 100 |  |  |  | 
3 | COc1ccnc(C(=O)N[C@H]2CCC[C@H](Cc3ccc(C)cc3)[C@@H](Oc3ccccc3)[C@H](C)OC2=O)c1OC(C)=O [Compound F79, 4-methoxy-2-(((3S,7R,8R,9S)-9-methyl-7-(4-methylbenzyl)-2-oxo-8-phenoxyoxonan-3-yl)carbamoyl)pyridin-3-yl acetate] | 96 to 100 | 80 to 100 | 80 to 100 | 80 to 100 | 80 to 100 |  |  |  | 
4 | COc1ccnc(C(=O)N[C@H]2CCC[C@H](Cc3ccc(F)cc3F)[C@@H](OCC(C)C)[C@H](C)OC2=O)c1O [Compound F59] | 69 to 72 | 80 to 100 | 80 to 100 | 80 to 100 | 80 to 100 | 80 to 100 | 80 to 100 | 0 to 80 | 
5 | COc1ccnc(C(=O)N[C@H]2CCC[C@H](Cc3ccc(F)cc3F)[C@@H](OC(=O)c3ccco3)[C@H](C)OC2=O)c1O [Compound F60] | 93 to 97 | 80 to 100 | 80 to 100 | 80 to 100 | 80 to 100 | 80 to 100 | 80 to 100 |  | 
6 | Cc1ccc(C[C@H]2CCC[C@H](N(C(=O)OC(C)(C)C)C(=O)OC(C)(C)C)C(=O)O[C@@H](C)[C@@H]2OCc2ccccc2)cc1 [Compound F230, tert-butyl N-[(3S,7R,8R,9S)-8-benzyloxy-9-methyl-2-oxo-7-(p-tolylmethyl)oxonan-3-yl]-N-tert-butoxycarbonyl-carbamate] | 164 to 166 |  |  |  |  |  |  |  | 
7 | COc1ccnc(C(=O)N[C@H]2CCC[C@H](Cc3ccc(C)cc3)[C@@H](OCC3CC3)[C@H](C)OC2=O)c1OCOC(C)=O [Compound F127] | 55 to 60 | 80 to 100 | 80 to 100 | 80 to 100 | 80 to 100 |  |  |  | 
8 | COc1ccnc(C(=O)N[C@H]2CCC[C@H](Cc3ccc(C)cc3)[C@@H](OCC(C)C)[C@H](C)OC2=O)c1O [Compound F41] | 129 to 131 | 80 to 100 | 0 to 80 | 80 to 100 | 80 to 100 |  |  |  | 

Now from value to molecule, other results behind:

Row | melting point [°C] | SMILES | pest or weed control at 100 ppm [1, 3] [%] | pest or weed control at 100 ppm [1, 4] [%] | pest or weed control at 100 ppm [2, 5] [%] | pest or weed control at 100 ppm [2, 6] [%] | pest or weed control at 121.5 g/ha [1, 3] [%] | pest or weed control at 121.5 g/ha [2, 5] [%] | pest or weed control at 121.5 g/ha [2, 6] [%] | pest or weed control at 121.5 g/ha [1, 4] [%]
9 | 71 to 75 | COc1ccnc(C(=O)N[C@H]2CCC[C@H](Cc3ccc(C)cc3)[C@@H](Oc3ccccc3)[C@H](C)OC2=O)c1OCOC(C)=O [Compound F134] | 80 to 100 | 80 to 100 | 80 to 100 | 80 to 100 |  |  |  | 
10 | 40 to 45 | COc1ccnc(C(=O)N[C@H]2CCC[C@H](Cc3ccc(F)cc3F)[C@@H](OCCCc3ccccc3)[C@H](C)OC2=O)c1OCOC(C)=O [Compound F141] | 80 to 100 | 0 to 80 | 80 to 100 | 80 to 100 | 80 to 100 | 80 to 100 | 0 to 80 | 
11 | 50 to 55 | CCOCC(=O)OCOc1c(OC)ccnc1C(=O)N[C@H]1CCC[C@H](Cc2ccc(C)cc2)[C@@H](OCC2CC2)[C@H](C)OC1=O [Compound F180] | 80 to 100 | 80 to 100 | 80 to 100 | 80 to 100 | 80 to 100 | 80 to 100 | 80 to 100 | 0 to 80
12 | 45 to 48 | COCN(C(=O)OC(C)(C)C)[C@H]1CCC[C@H](Cc2ccc(F)cc2F)[C@@H](OC(=O)c2ccco2)[C@H](C)OC1=O [Compound F260] |  |  |  |  |  |  |  | 
